Experimental data reported in patent publication US6197225A, “Chromene compound” (Tokuyama Corporation, priority 1997, dated 2001).

How the values were obtained:
[1] = Photochromic properties of cast polymer (2 mm thick) under xenon lamp irradiation for 120 seconds; assay type: physicochemical; details: single chromene compound 0.04% by weight in polymer, 20° C., Table 5; for Color density ε(120)-ε(0): 120 seconds
Protocol: 0.04% by weight of the chromene compound obtained in Example 1 was added to 70 parts of 4G, 15 parts of 3G, 10 parts of GMA, 5 parts of HEMA and 1 part of perbutyl ND, and was mixed together to a sufficient degree. The mixture solution was poured into a mold constituted by a glass plate and a gasket of an ethylene/vinyl acetate copolymer, and was cast-polymerized. By using an air furnace, the polymerization was conducted in a manner that the temperature was gradually raised from 30° C. to 90° C. over a period of 18 hours, and was held at 90° C. for 2 hours. After the polymerization, the polymer was taken out from the glass mold.
By using a xenon lamp, L-2480 (300 W) SHL-100, manufactured by Hamamatsu Photonics Co., the obtained polymer (2 mm thick) was irradiated with a beam of an intensity of 365 nm=2.4 mW/cm^2 and 245 nm=24 μW/cm^2 on the surface of the polymer for 120 seconds through an aero-mass filter (manufactured by Corning Co.) at 20° C.±1° C. to develop color and to measure the photochromic properties which were expressed in the following manner.
1 Maximum absorption wavelength (λmax): λmax of the polymer after it has developed color was found by using a spectrophotometer (instantaneous multi-channel photo-detector, MCPD1000) manufactured by Otsuka Denshi Kogyo Co.
2 Initial color ( ε(0)): Absorbency of the polymer in a non-irradiated state at a wavelength same as the maximum absorption wavelength of when it is irradiated with light.
3 Color density (-)=ε(120)-ε(0). ε(120): Absorbency of the polymer at a maximum absorption wavelength after it was irradiated for 120 seconds under the above-mentioned conditions.
4 Color-developing sensitivity (-/min.)=Saturated color density/xenon irradiation time.
Rate of increase in the color density per a unit time until the color density is saturated.
5 Color fading rate [t1/2 (min.)]=time required until the absorbency of the polymer drops down to one-half of [ε(120)-ε(0)] after irradiated for 120 seconds.
(§1) Photochromic polymers were prepared in the same manner as in Example 42 but using the chromene compounds obtained in Examples 2 to 41, and their maximum absorption wavelengths, color densities, fading rates, changes in the coloring degrees and durabilitys were measured.
(§2) For the purpose of comparison, furthermore, the compounds represented by the following formulas (a), (b), (c), (d), (e) and (f) were measured for their maximum absorption wavelengths, color densities, fading rates, changes in the coloring degrees and durabilitys.
(§3) The procedure was carried out in the same manner as in Example 42 but using 100 parts of AC1 and 133 parts of BC1, the sum of the amounts of AC1 and BC1 being 0.04% by weight. The obtained photochromic polymer was measured for its maximum absorption wavelength, initial color, color density, color-developing sensitivity, fading rate, durability and change in the coloring degree.
(§4) The procedure was carried out in the same manner as in Example 83 but using the known chromene compounds shown in Table 6 instead of the chromene compound used in Example 83. […]

[2] = Aging promotion testing: sunlight 30 min / fading one hour cycles, 10 days (durability, coloring degree); assay type: physicochemical; details: single chromene compound in polymer, 10 days aging, Table 5; for Change in the coloring degree ΔYI: YI(10)-YI(0)
Protocol: In order to promote the aging, furthermore, the following testing was conducted. That is, the obtained photochromic polymer was irradiated with sunlight for 30 minutes to develop color, and its color was permitted to fade for one hour in the light of a fluorescent lamp. This cycle was repeated three times a day for a total of 10 days.
The photochromic properties before and after aged were evaluated by evaluating the color densities before and after aged. The initial color density (T0) and the color density (T30) ten days after the aging promotion testing were measured, and the durability was expressed as described below.
Furthermore, the coloring degrees of before developing color were measured before and after aged by using a color difference meter (SM-4) manufactured by Suga Shikenki Co.
7 Coloring degree before being aged=YI(0).
8 Change in the coloring degree (ΔYI)=YI(10)-YI(0)
YI(10): coloring degree after aged
as §1, §2, §3, §4
The obtained polymer (2 mm thick) was caused to develop color outdoors, and tones of the developed color were observed by eyes 30 seconds and 15 minutes after it was brought to the outdoors, and uniformity in the step of developing color was evaluated. […] Furthermore, the aging promoting testing was conducted in the same manner as in Example 42 to find a coloring degree (YI(0)) before aged and a change in the coloring degree (ΔY).

SMILES | Maximum absorption wavelength λmax [1] [nm] | Color density ε(120)-ε(0) [1] | Change in the coloring degree ΔYI [2] | Light resistance (durability) [2] [%] | Fading rate t1/2 [1] [min]
COc1ccc(C2(c3ccc(OC(F)(F)F)cc3)C=Cc3c(C)cc4ccccc4c3O2)cc1 (centres unmarked) [Compound 30] | 490 | 1.1 | 2.4 | 97 | 8.5
CC(C)(C)c1cc2ccccc2c2c1C=CC1(O2)C2(Cl)CCCC1(Cl)CCC2 (centres unmarked) [Compound 22] | 444 | 0.5 | 3.0 | 80 | 1.4
COc1ccc(C2(c3ccc(OC)cc3)C=Cc3ccc4ccccc4c3O2)cc1 [a, reference compound] | 492 | 1.3 | 2.5 | 97 | > 30
CC(C)c1cc2ccccc2c2c1C=CC1(O2)C2CCC1CC2 (centres unmarked) [Compound 19] | 448 | 0.5 | 5.5 | 92 | 1.0
CC(C)(C)c1cc2ccccc2c2c1C=CC(c1ccccc1)(c1cc3ccccc3s1)O2 (centres unmarked) [Compound 11] | 485 | 1.0 | 1.9 | 97 | 3.4
CCOc1ccc(C2(c3ccc(OC)cc3)C=Cc3c(CC)cc4c(Cc5ccccc5)cccc4c3O2)cc1 (centres unmarked) [Compound 39] | 524 | 1.0 | 2.5 | 96 | 5.8
CC(C)c1cc2cc(O)ccc2c2c1C=CC(c1cccs1)(c1cccs1)O2 [Compound 9] | 500 | 0.6 | 2.2 | 94 | 2.2
CC(C)c1cc2ccccc2c2c1C=CC1(O2)C2CC3CC(C2)CC1C3 (centres unmarked) [Compound 25] | 454 | 0.7 | 2.2 | 92 | 2.0
CC(C)(C)c1cc2ccccc2c2c1C=CC(c1ccccc1)(c1ccccc1)O2 [Compound 1] | 462 | 0.7 | 0.2 | 99 | 3.6
CC(C)(C)c1cc2ccccc2c2c1C=CC1(O2)C2(Cl)CCC1(Cl)CC2 (centres unmarked) [Compound 20] | 440 | 0.4 | 4.0 | 80 | 1.3
C1=CC2(Oc3c1ccc1ccccc31)C1CCCC2CCC1 (centres unmarked) [d, reference compound] | 452 | 1.0 | 1.5 | 98 | 11
CC(C)(C)c1cc2ccccc2c2c1C=CC1(O2)C2CCCC1CCC2 (centres unmarked) [Compound 2] | 443 | 0.5 | 1.5 | 96 | 1.2
CCOc1ccc(C2(c3ccc(OCC)cc3)C=Cc3c(C)cc4ccccc4c3O2)cc1 [Compound 29] | 504 | 1.2 | 2.4 | 98 | 5.8

Continued, in another order:

Maximum absorption wavelength λmax [1] [nm] | Color density ε(120)-ε(0) [1] | Change in the coloring degree ΔYI [2] | Light resistance (durability) [2] [%] | SMILES | Fading rate t1/2 [1] [min]
496 | 1.1 | 2.3 | 99 | COc1ccc(C2(c3ccc(OC)c(F)c3)C=Cc3c(C)cc4ccccc4c3O2)cc1F [Compound 27] | 7.3
492 | 0.8 | 1.3 | 99 | COc1ccc(C2(c3ccc(OC)c(F)c3)C=Cc3c(C(C)C)cc4ccccc4c3O2)cc1F [Compound 14] | 4.3
465 | 0.6 | 1.5 | 93 | CC(=O)Oc1ccc2c3c(c(C(C)C)cc2c1)C=CC(c1ccc(C)cc1)(c1ccc(C)cc1)O3 [Compound 10] | 3.2
498 | 0.9 | 2.3 | 98 | CCCc1cc2ccccc2c2c1C=CC(c1ccc(OC)cc1)(c1ccc(OC)cc1)O2 [Compound 35] | 4.5
502 | 1.1 | 2.4 | 97 | COc1ccc(C2(c3ccc(OC)c(F)c3)C=Cc3c(C)cc4ccccc4c3O2)cc1 (centres unmarked) [Compound 34] | 6.5
486 | 0.9 | 1.2 | 96 | COc1ccc(C2(c3ccc(OC(F)(F)F)cc3)C=Cc3c(C(C)C)cc4ccccc4c3O2)cc1 (centres unmarked) [Compound 15] | 4.8
470 | 0.9 | 1.2 | 99 | CC(C)c1cc2ccccc2c2c1C=CC(c1ccccc1)(c1ccc(OC(F)(F)F)cc1)O2 (centres unmarked) [Compound 16] | 5.2
502 | 1.0 | 2.5 | 96 | CCc1cc2ccccc2c2c1C=CC(c1ccc(OC)cc1)(c1ccc(OC)cc1)O2 [Compound 28] | 5.5
468 | 0.8 | 1.7 | 96 | CC(C)c1cc2ccccc2c2c1C=CC(c1ccccc1)(c1ccc3ccccc3c1)O2 (centres unmarked) [Compound 7] | 3.5
506 | 1.1 | 3.0 | 95 | COc1ccc(C2(c3ccco3)C=Cc3c(C)cc4ccccc4c3O2)cc1F (centres unmarked) [Compound 31] | 7.0
465 | 0.6 | 1.5 | 99 | CCC(C)(CC)c1cc2ccccc2c2c1C=CC(c1ccc(OC)c(F)c1)(c1ccc(OC)c(F)c1)O2 [Compound 5] | 2.2
470 | 0.7 | 5.0 | 80 | CCC(C)c1cc2ccccc2c2c1C=CC(c1ccc(OC)cc1)(c1ccc(OC)c(C#N)c1)O2 (centres unmarked) [Compound 4] | 2.4
